Results from ChEMBL document CHEMBL5724914, “Linking interpersonal differences in gut microbiota composition and drug biotransformation activity” (2024).

Key:
[1] = human gut metagenome, 24 h, 2 µM
[2] = human gut metagenome, 24 h, 2 µM; remark: listed apart in the source
[3] = The drug is tested on WLS-007 corresponding to human gut metagenome with ENA study accession number: PRJEB37062 and ENA sample accession number: ERS12561742 for biotransformation under anaerobic condition. The drug concentrations were measured over 9 timepoints collected between 0 and 24 hours of incubation by liquid-chromatography-coupled mass spectrometry (LC–MS); conditions: 2 µM
[4] = human gut metagenome, 24 h, 2 µM; remark: listed apart in the source
[5] = The drug is tested on Z-013 corresponding to rabbit gut metagenome with ENA study accession number: PRJEB37062 and ENA sample accession number: ERS12561813 for biotransformation under anaerobic condition. The drug concentrations were measured over 9 timepoints collected between 0 and 24 hours of incubation by liquid-chromatography-coupled mass spectrometry (LC–MS); conditions: 2 µM
[6] = The drug is tested on WLS-052 corresponding to human gut metagenome with ENA study accession number: PRJEB37062 and ENA sample accession number: ERS12561747 for biotransformation under anaerobic condition. The drug concentrations were measured over 9 timepoints collected between 0 and 24 hours of incubation by liquid-chromatography-coupled mass spectrometry (LC–MS); conditions: 2 µM
[7] = human gut metagenome, 24 h, 2 µM; remark: listed apart in the source
[8] = The drug is tested on Z-011 corresponding to mouse gut metagenome with ENA study accession number: PRJEB37062 and ENA sample accession number: ERS12561811 for biotransformation under anaerobic condition. The drug concentrations were measured over 9 timepoints collected between 0 and 24 hours of incubation by liquid-chromatography-coupled mass spectrometry (LC–MS); conditions: 2 µM
[9] = The drug is tested on WLS-010 corresponding to human gut metagenome with ENA study accession number: PRJEB37062 and ENA sample accession number: ERS12561743 for biotransformation under anaerobic condition. The drug concentrations were measured over 9 timepoints collected between 0 and 24 hours of incubation by liquid-chromatography-coupled mass spectrometry (LC–MS); conditions: 2 µM
[10] = human gut metagenome, 24 h, 2 µM; remark: listed apart in the source
[11] = The drug is tested on WLS-039 corresponding to human gut metagenome with ENA study accession number: PRJEB37062 and ENA sample accession number: ERS12561746 for biotransformation under anaerobic condition. The drug concentrations were measured over 9 timepoints collected between 0 and 24 hours of incubation by liquid-chromatography-coupled mass spectrometry (LC–MS); conditions: 2 µM
[12] = The drug is tested on WLS-082 corresponding to human gut metagenome with ENA study accession number: PRJEB37062 and ENA sample accession number: ERS12561751 for biotransformation under anaerobic condition. The drug concentrations were measured over 9 timepoints collected between 0 and 24 hours of incubation by liquid-chromatography-coupled mass spectrometry (LC–MS); conditions: 2 µM
[13] = The drug is tested on WLS-006 corresponding to human gut metagenome with ENA study accession number: PRJEB37062 and ENA sample accession number: ERS12561741 for biotransformation under anaerobic condition. The drug concentrations were measured over 9 timepoints collected between 0 and 24 hours of incubation by liquid-chromatography-coupled mass spectrometry (LC–MS); conditions: 2 µM
[14] = human gut metagenome, 24 h, 2 µM; remark: listed apart in the source
[15] = human gut metagenome, 24 h, 2 µM; remark: listed apart in the source
[16] = human gut metagenome, 24 h, 2 µM; remark: listed apart in the source
[17] = human gut metagenome, 24 h, 2 µM; remark: listed apart in the source
[18] = The drug is tested on WLS-370 corresponding to human gut metagenome with ENA study accession number: PRJEB37062 and ENA sample accession number: ERS12561793 for biotransformation under anaerobic condition. The drug concentrations were measured over 9 timepoints collected between 0 and 24 hours of incubation by liquid-chromatography-coupled mass spectrometry (LC–MS); conditions: 2 µM
[19] = The drug is tested on WLS-350 corresponding to human gut metagenome with ENA study accession number: PRJEB37062 and ENA sample accession number: ERS12561789 for biotransformation under anaerobic condition. The drug concentrations were measured over 9 timepoints collected between 0 and 24 hours of incubation by liquid-chromatography-coupled mass spectrometry (LC–MS); conditions: 2 µM
[20] = The drug is tested on Z-006 corresponding to mouse gut metagenome with ENA study accession number: PRJEB37062 and ENA sample accession number: ERS12561806 for biotransformation under anaerobic condition. The drug concentrations were measured over 9 timepoints collected between 0 and 24 hours of incubation by liquid-chromatography-coupled mass spectrometry (LC–MS); conditions: 2 µM
Also: call rule not given here.

Compound | Bacterial Biotransformation [1] | Bacterial Biotransformation [2] | Bacterial Biotransformation [3] | Bacterial Biotransformation [4] | Bacterial Biotransformation [5] | Bacterial Biotransformation [6] | Bacterial Biotransformation [7] | Bacterial Biotransformation [8] | Bacterial Biotransformation [9] | Bacterial Biotransformation [10] | Bacterial Biotransformation [11] | Bacterial Biotransformation [12] | Bacterial Biotransformation [13] | Bacterial Biotransformation [14] | Bacterial Biotransformation [15] | Bacterial Biotransformation [16] | Bacterial Biotransformation [17] | Bacterial Biotransformation [18] | Bacterial Biotransformation [19] | Bacterial Biotransformation [20]
CN1CCC[C@@H]1CCO[C@](C)(c1ccccc1)c1ccc(Cl)cc1.O=C(O)/C=C/C(=O)O [CLEMASTINE FUMARATE] | Compound NOT metabolized | Compound NOT metabolized | Compound NOT metabolized | Compound metabolized | Compound NOT metabolized | Compound NOT metabolized | Compound NOT metabolized | Compound NOT metabolized | Compound NOT metabolized | Compound NOT metabolized | Compound metabolized | Compound NOT metabolized | Compound NOT metabolized | Compound metabolized | Compound NOT metabolized | Compound metabolized | Compound NOT metabolized | Compound metabolized | Compound metabolized | Compound NOT metabolized
CC12CC3CC(C)(C1)CC(N)(C3)C2 [MEMANTINE] | Compound NOT metabolized | Compound NOT metabolized | Compound NOT metabolized | Compound NOT metabolized | Compound NOT metabolized | Compound NOT metabolized | Compound NOT metabolized | Compound NOT metabolized | Compound NOT metabolized | Compound NOT metabolized | Compound metabolized | Compound NOT metabolized | Compound NOT metabolized | Compound metabolized | Compound NOT metabolized | Compound NOT metabolized | Compound NOT metabolized | Compound NOT metabolized | Compound NOT metabolized | Compound NOT metabolized
COc1cc2nc(N3CCN(C(=O)C4CCCO4)CC3)nc(N)c2cc1OC (stereo not given) [TERAZOSIN] | Compound NOT metabolized | Compound metabolized | Compound metabolized | Compound metabolized | Compound NOT metabolized | Compound NOT metabolized | Compound NOT metabolized | Compound metabolized | Compound NOT metabolized | Compound NOT metabolized | Compound NOT metabolized | Compound metabolized | Compound metabolized | Compound metabolized | Compound NOT metabolized | Compound NOT metabolized | Compound NOT metabolized | Compound NOT metabolized | Compound NOT metabolized | Compound NOT metabolized
CC#C[C@]1(O)CC[C@H]2[C@@H]3CCC4=CC(=O)CCC4=C3[C@@H](c3ccc(N(C)C)cc3)C[C@@]21C [MIFEPRISTONE] | Compound metabolized | Compound NOT metabolized | Compound metabolized | Compound NOT metabolized | Compound metabolized | Compound metabolized | Compound NOT metabolized | Compound metabolized | Compound metabolized | Compound NOT metabolized | Compound NOT metabolized | Compound metabolized | Compound metabolized | Compound metabolized | Compound NOT metabolized | Compound NOT metabolized | Compound NOT metabolized | Compound NOT metabolized | Compound NOT metabolized | Compound metabolized
COc1ccc2c(c1)c(CC(=O)O)c(C)n2C(=O)c1ccc(Cl)cc1 [INDOMETHACIN] | Compound metabolized | Compound metabolized | Compound metabolized | Compound NOT metabolized | Compound NOT metabolized | Compound metabolized | Compound metabolized | Compound NOT metabolized | Compound metabolized | Compound NOT metabolized | Compound metabolized | Compound NOT metabolized | Compound metabolized | Compound metabolized | Compound NOT metabolized | Compound metabolized | Compound metabolized | Compound metabolized | Compound metabolized | Compound NOT metabolized
CCOc1ccc2nc(S(N)(=O)=O)sc2c1 [ETHOXZOLAMIDE] | Compound NOT metabolized | Compound NOT metabolized | Compound NOT metabolized | Compound NOT metabolized | Compound NOT metabolized | Compound NOT metabolized | Compound NOT metabolized | Compound NOT metabolized | Compound NOT metabolized | Compound NOT metabolized | Compound NOT metabolized | Compound NOT metabolized | Compound NOT metabolized | Compound NOT metabolized | Compound NOT metabolized | Compound NOT metabolized | Compound NOT metabolized | Compound NOT metabolized | Compound NOT metabolized | Compound NOT metabolized
